The results in this text go back to patent US20250228239A1, “MOLECULES HAVING PESTICIDAL UTILITY, AND INTERMEDIATES, COMPOSITIONS, AND PROCESSES, RELATED THERETO” (priority 2024, published 2025).

The subject of assay [1] is Beet Armyworm (Spodoptera exigua, LAPHEG). In words: Bioassays on Beet Armyworm (BAW), 128-well diet tray assay. Format: in vivo. The settings on record: Spodoptera exigua. The method in brief: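 Test molecule was dissolved in 90:10 acetone-water and applied at 50 μg/cm^2 onto artificial diet in eight wells, then dried. Second instar larvae, one to five per well, were added, and trays were kept vented at 25° C. with a 14:10 photoperiod for five to seven days before mortality was recorded.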

In assay [2] the test system is Cabbage Looper (Trichoplusia ni, TRIPNI). Nature of the assay: Bioassays on Cabbage Looper (CL), 128-well diet tray assay. As to conditions: Trichoplusia ni. In kind it is in vivo. In a few lines:
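Percent mortality, averaged across eight replicate wells, after second-instar larvae (1–5 per well) fed for five to seven days on diet dosed at 50 μg/cm^2. Compound was applied in acetone-water 90:10 and dried; trays kept vented at 25° C under 14:10 photoperiod.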

The mark [3] stands for this setting: Beet Armyworm, rating class, read-out: BAW.
The mark [4] stands for this setting: Cabbage Looper, rating class, read-out: CL.
The mark [5] stands for this setting: Beet Armyworm, Table ABC / ABC-DP rating, read-out: BAW rating.
Setting [6] is: Cabbage Looper, Table ABC / ABC-DP rating, read-out: CL rating.
Where [7] appears, read: Table ABC: Biological Results, species BAW, read-out: BAW.
The mark [8] stands for this setting: Table ABC: Biological Results, species CL, read-out: CL.

Where two headings read alike, the source gives them in different places.

In the case of `CC(=O)C(=O)Nc1c(F)ccc(NC(=O)c2cc(NC(=O)[C@H]3[C@H](c4ccc(F)c(C(F)(F)F)c4)C3(Cl)Cl)ccc2Cl)c1F` [F1754, 2-Chloro-5-((1R,3R)-2,2-dichloro-3-(4-fluoro-3-(trifluoromethyl)phenyl)cyclopropane-1-carboxamido)-N-(2,4-difluoro-3-(2-oxopropanamido)phenyl)benzamide], the pest or weed control at 50 µg/cm2 in assay [1] (setting [3]) and in assay [2] (setting [4]) was 50 to 100% in each case.

As to `C#CCCC(=O)Nc1c(F)ccc(NC(=O)c2cc(NC(=O)[C@H]3[C@H](c4ccc(F)c(C(F)(F)F)c4)C3(Cl)Cl)ccc2Cl)c1F` [F1855], the pest or weed control at 50 µg/cm2 in assay [1] (setting [5]) and in assay [2] (setting [6]) was 50 to 100% throughout.

Turning to `O=C(Nc1cc(NC(=O)C(F)(F)C(F)F)c(F)cc1F)c1cc(NC(=O)[C@H]2[C@H](c3ccc(Cl)c(Cl)c3)C2(Cl)Cl)ccc1Cl` [F1565, 2-Chloro-5-((1R,3R)-2,2-dichloro-3-(3,4-dichlorophenyl)cyclopropane-1-carboxamido)-N-(2,4-difluoro-5-(2,2,3,3-tetrafluoropropanamido)phenyl)benzamide], the pest or weed control at 50 µg/cm2 in assay [1] (setting [3]) and in assay [2] (setting [4]) was 50 to 100% throughout.

`O=C(Nc1ccc(F)c(NC(=O)C(F)F)c1F)c1cc(NC(=O)[C@H]2[C@H](c3cc(Cl)c(F)c(Cl)c3)C2(Cl)Cl)ccc1Cl` (relative stereo) [F1331, trans-2-Chloro-5-(2,2-dichloro-3-(3,5-dichloro-4-fluorophenyl)cyclopropane-1-carboxamido)-N-(3-(2,2-difluoroacetamido)-2,4-difluorophenyl)benzamide]: the pest or weed control at 50 µg/cm2 in assay [1] (setting [7]) and in assay [2] (setting [8]) was 50 to 100% each time.

For the molecule `O=C(Nc1ccc(F)cc1F)c1cc(NC(=O)[C@H]2[C@H](c3cc(F)cc(Br)c3F)C2(Cl)Cl)ccc1Cl` (relative stereo) [F1093, trans-5-(3-(3-bromo-2,5-difluorophenyl)-2,2-dichlorocyclopropane-1-carboxamido)-2-chloro-N-(2,4-difluorophenyl)benzamide], the pest or weed control at 50 µg/cm2 in assay [1] (setting [7]) and in assay [2] (setting [8]) was 50 to 100% throughout.

As for `O=C(Nc1ccc(F)c(NC(=O)C(F)F)c1F)c1cc(NC(=O)[C@H]2[C@H](c3cc(Cl)c(Cl)c(Cl)c3)C2(Cl)Cl)ccc1Cl` [F1269, 2-Chloro-5-((1R,3R)-2,2-dichloro-3-(3,4,5-trichlorophenyl)cyclopropane-1-carboxamido)-N-(3-(2,2-difluoroacetamido)-2,4-difluorophenyl)benzamide], the pest or weed control at 50 µg/cm2 in assay [1] (setting [7]) and in assay [2] (setting [8]) was 50 to 100% throughout.

`COc1c(Cl)cc(NC(=O)[C@H]2[C@H](c3ccc(F)c(Cl)c3)C2(Cl)Cl)cc1C(=O)NCC(F)(F)C(F)(F)F` (relative stereo) [F2062, trans-3-Chloro-5-(2,2-dichloro-3-(3-chloro-4-fluorophenyl)cyclopropane-1-carboxamido)-2-methoxy-N-(2,2,3,3,3-pentafluoropropyl)benzamide]: the pest or weed control at 50 µg/cm2 in assay [1] (setting [5]) and in assay [2] (setting [6]) was 50 to 100% in each case.

With `O=C(NCC(F)(F)F)c1cc(NC(=O)[C@@H]2[C@@H](c3ccc(F)c(F)c3)C2(Cl)Cl)ccc1Cl` [F2100, 2-Chloro-5-((1S,3S)-2,2-dichloro-3-(3,4-difluorophenyl)cyclopropane-1-carboxamido)-N-(2,2,2-trifluoroethyl)benzamide], the pest or weed control at 50 µg/cm2 in assay [1] (setting [5]) and in assay [2] (setting [6]) was 50 to 100% each time.

For `CC(=O)Nc1ccc(F)c(NC(=O)c2cc(NC(=O)[C@H]3[C@H](c4ccc(Cl)c(Cl)c4)C3(Cl)Cl)cc(C)c2Cl)c1F` [F1523, N-(3-Acetamido-2,6-difluorophenyl)-2-chloro-5-((1R,3R)-2,2-dichloro-3-(3,4-dichlorophenyl)cyclopropane-1-carboxamido)-3-methylbenzamide], the pest or weed control at 50 µg/cm2 in assay [1] (setting [3]) and in assay [2] (setting [4]) was 50 to 100% in each case.

The term mortality denotes the percentage killed. `O=C(NNC1CCC(F)(F)CC1)c1cc(NC(=O)[C@H]2[C@H](c3cc(Cl)cc(Cl)c3)C2(Cl)Cl)ccc1Cl` (relative stereo) [F2569, trans-2,2-dichloro-N-(4-chloro-3-(2-(4,4-difluorocyclohexyl)hydrazine-1-carbonyl)phenyl)-3-(3,5-dichlorophenyl)cyclopropane-1-carboxamide]: the mortality at 50 µg/cm2 in assay [1] (168 h, second instar larvae, 50 μg/cm^2 of test molecule on artificial diet, 25° C., five to seven days, average of eight wells, read-out: BAW % Control (or Mortality) rating) was in the range of 50 to 100%; in assay [2] (168 h, second instar larvae, 50 μg/cm^2 of test molecule on artificial diet, 25° C., five to seven days, average of eight wells, read-out: CL % Control (or Mortality) rating), 50 to 100%. In addition, the pest or weed control at 50 µg/cm2 in assay [1] (setting [5]) and in assay [2] (setting [6]) was 50 to 100% throughout.

`CC(C)(C)OC(=O)Nc1c(F)ccc(NC(=O)c2cc(NC(=O)[C@H]3[C@H](c4cc(F)cc(C(F)(F)F)c4)C3(Cl)Cl)ccc2Cl)c1F` (relative stereo) [F1092, trans-tert-Butyl-(3-(2-chloro-5-(2,2-dichloro-3-(3-fluoro-5-(trifluoromethyl)phenyl)cyclopropane-1-carboxamido)benzamido)-2,6-difluorophenyl)carbamate]: the pest or weed control at 50 µg/cm2 in assay [1] (setting [7]) and in assay [2] (setting [8]) was 50 to 100% throughout.

For the molecule `O=C(Nc1c(F)ccc(NC(=O)c2cc(NC(=O)[C@H]3[C@H](c4ccc(Cl)c(Cl)c4)C3(Cl)Cl)ccc2Cl)c1F)c1ccns1` [F1672], the pest or weed control at 50 µg/cm2 in assay [1] (setting [3]) and in assay [2] (setting [4]) was 50 to 100% throughout.

Consider `O=C(Nc1cc(Br)c(F)cc1F)c1cc(NC(=O)[C@H]2[C@H](c3cc(Cl)cc(Cl)c3)C2(Cl)Cl)ccc1Cl` (relative stereo) [F1308, trans-N-(5-Bromo-2,4-difluorophenyl)-2-chloro-5-(2,2-dichloro-3-(3,5-dichlorophenyl)cyclopropane-1-carboxamido)benzamide], for which the pest or weed control at 50 µg/cm2 in assay [1] (setting [7]) and in assay [2] (setting [8]) was 50 to 100% in each case.

As for `O=C(Nc1ccccc1)c1cc(NC(=O)[C@H]2[C@H](c3ccc(F)c(Cl)c3)C2(Cl)Cl)cc(Cl)c1F` (relative stereo) [F1194, trans-3-Chloro-5-(2,2-dichloro-3-(3-chloro-4-fluorophenyl)cyclopropane-1-carboxamido)-2-fluoro-N-phenylbenzamide], the pest or weed control at 50 µg/cm2 in assay [1] (setting [7]) and in assay [2] (setting [8]) was 50 to 100% in each case.

`O=C(COCC(F)(F)F)Nc1c(F)ccc(NC(=O)c2cc(NC(=O)[C@H]3[C@H](c4ccc(F)c(C(F)(F)F)c4)C3(Cl)Cl)ccc2Cl)c1F` [F1846, 2-Chloro-5-((1R,3R)-2,2-dichloro-3-(4-fluoro-3-(trifluoromethyl)phenyl)cyclopropane-1-carboxamido)-N-(2,4-difluoro-3-(2-(2,2,2-trifluoroethoxy)acetamido)phenyl)benzamide]: the pest or weed control at 50 µg/cm2 in assay [1] (setting [5]) and in assay [2] (setting [6]) was 50 to 100% in each case.

As to `O=C(Nc1ccc(Cl)c(NC(=O)C(F)(F)F)c1)c1cc(NC(=O)[C@H]2[C@H](c3ccc(F)c(Cl)c3)C2(Cl)Cl)ccc1Cl` (relative stereo) [F1366, trans-2-Chloro-N-(4-chloro-3-(2,2,2-trifluoroacetamido)phenyl)-5-(2,2-dichloro-3-(3-chloro-4-fluorophenyl)cyclopropane-1-carboxamido)benzamide], the pest or weed control at 50 µg/cm2 in assay [1] (setting [7]) and in assay [2] (setting [8]) was 50 to 100% throughout.

On to `Cc1ccc(CNc2ccc(NC(=O)c3cc(NC(=O)[C@H]4[C@H](c5cc(Cl)cc(Cl)c5)C4(Cl)Cl)ccc3Cl)c(C)c2)cc1` (relative stereo) [F1041, trans-2-Chloro-5-(2,2-dichloro-3-(3,5-dichlorophenyl)cyclopropane-1-carboxamido)-N-(2-methyl-4-((4-methylbenzyl)amino)phenyl)benzamide], for which the pest or weed control at 50 µg/cm2 in assay [1] (setting [7]) and in assay [2] (setting [8]) was 50 to 100% each time.

As for `Cc1cc([C@H]2[C@H](C(=O)Nc3ccc(Cl)c(C(=O)Nc4ccc(F)c(N)c4F)c3)C2(Cl)Cl)cc(C(F)(F)F)c1F` (relative stereo) [F1068, trans-N-(3-Amino-2,4-difluorophenyl)-2-chloro-5-(2,2-dichloro-3-(4-fluoro-3-methyl-5-(trifluoromethyl)phenyl)cyclopropane-1-carboxamido)benzamide], the pest or weed control at 50 µg/cm2 in assay [1] (setting [7]) and in assay [2] (setting [8]) was 50 to 100% each time.

For the molecule `O=C(Nc1ccc(F)cc1F)c1c(Cl)ccc(NC(=O)[C@H]2[C@H](c3ccc(F)c(Cl)c3)C2(Cl)Cl)c1F` [F1464, 6-Chloro-3-((1R,3R)-2,2-dichloro-3-(3-chloro-4-fluorophenyl)cyclopropane-1-carboxamido)-N-(2,4-difluorophenyl)-2-fluorobenzamide], the pest or weed control at 50 µg/cm2 in assay [1] (setting [3]) and in assay [2] (setting [4]) was 50 to 100% throughout.

With `O=C(Nc1cc(NC(=O)C(F)(F)F)c(F)cc1F)c1cc(NC(=O)[C@H]2[C@H](c3ccc(Cl)c(Cl)c3)C2(Cl)Cl)cc(F)c1F` [F1582, 5-((1R,3R)-2,2-Dichloro-3-(3,4-dichlorophenyl)cyclopropane-1-carboxamido)-N-(2,4-difluoro-5-(2,2,2-trifluoroacetamido)phenyl)-2,3-difluorobenzamide], the pest or weed control at 50 µg/cm2 in assay [1] (setting [3]) and in assay [2] (setting [4]) was 50 to 100% each time.
